Data as given in the METLIN SMRT retention time set (Domingo-Almenara et al. 2019).

Experiment: gradient 5% acetonitrile 3 min, to 50% in 2 min, to 85% in 15 min, held 3 min, 100 µL/min
Conditions: column: Zorbax Extend-C18 2.1 x 50 mm; eluents: water / acetonitrile, 0.1% formic acid
Summary of the method: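 Standards, all pure, were combined into mixtures of ~100 molecules and run at 100 μL/min on a Zorbax Extend-C18 column (2.1 × 50 mm, 1.8 μm) with water and acetonitrile, each containing 0.1% formic acid. A coupled quadrupole time-of-flight mass spectrometer operated in positive and negative ionization mode. Retention time values come from computationally picked adduct peaks, each inspected manually.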

Row | RP-LC retention time [s] | Compound
1 | 778 | Cc1ccccc1NC(=O)C1(C)Oc2cccnc2N(C)C1=O (stereo not drawn)
2 | 663 | O=C(CN1C(=O)C(C(=O)N2CCCC2)Sc2ccccc21)NC1CCN(Cc2ccccc2)CC1 (stereo not drawn)
3 | 635 | CC1CCCN(CCCNC(=O)CN2C(=O)CCn3nc(-c4cn(C)c5ccccc45)cc32)C1 (stereo not drawn)
4 | 810 | COc1ccccc1C(=O)Nc1ccc2c(c1)Sc1ncccc1C(=O)N2C
5 | 942 | CCc1ccc(N2C=C(C(=O)OC)S(=O)(=O)c3ccccc32)cc1
6 | 807 | CCCc1cc(C2CCCN2C(=O)Nc2ccc(C(=O)OC)cc2)no1 (stereo not drawn)
7 | 585 | Cc1ccc(NC(=O)CN2CCC(C(=O)NCc3c(F)cccc3F)CC2)c(C)c1
8 | 1020 | COc1ccc(-c2noc(C3CCCN3C(=O)Nc3cccc(Cl)c3)n2)cc1 (stereo not drawn)
9 | 672 | CCn1cc(CN2CCC(C(=O)NC(C)CCc3ccccc3)CC2)c2cc(Cl)ccc21 (stereo not drawn)
10 | 1080 | CCCc1nc(-c2ccccc2)oc1CC(=O)Nc1cccc(Cl)c1C
11 | 1050 | COc1ccc(OC)c(NC(=O)C2CCCN(S(=O)(=O)Cc3ccc(Cl)cc3)C2)c1 (stereo not drawn)
12 | 753 | CCc1nc2c(c(=O)n1CC(=O)Nc1ccc(C(C)C)cc1)CN(Cc1ccccc1)CC2
13 | 722 | CCCCOc1ccc(NC(=O)c2cc(=O)c3ccc(C)cc3o2)c2cccnc12
14 | 845 | CCOc1ccc(NC(=O)Cn2c(=O)nc(N3CCC(C)CC3)c3ccccc32)cc1
15 | 672 | CC1CCN(C(=O)c2ccc(Cn3cncn3)cc2)CC1
16 | 579 | COc1ccc2c(c1)c(CN1CCC(N3C[C@H](OC)[C@@H]3c3cccnc3)CC1)cn2C
17 | 682 | CN(C(=O)CC(=O)Nc1ccc2nc3n(c(=O)c2c1)CCCCC3)c1ccccc1F
18 | 752 | CCN1c2ccccc2C(=O)NC12CCN(C(=O)c1cccc(OC)c1)CC2
19 | 664 | COc1ccc(-c2nnc(N3CCC(C(=O)N4CCOCC4)CC3)o2)cc1
20 | 598 | O=C(Cn1c(=O)c2cccn2c2ccc(F)cc21)NCCCN1CCCC1
21 | 719 | CCn1cnc(S(=O)(=O)N2CCC(C(=O)Nc3cc(C)ccc3C)CC2)c1
22 | 637 | Cc1cc(C(=O)N2CCOCC2)nn1CC(=O)NCCc1c[nH]c2ccccc12
23 | 993 | CCOc1ccc(CNC(=O)COc2nc(CC)nc3oc(C)c(C)c23)cc1
24 | 777 | COc1ccc(Cn2c(=O)c3ccnn3c3ccc(C(=O)O)cc32)cc1
25 | 906 | O=C(NCCc1ccccc1)C1CCCN(C(=O)Cc2cccc3ccccc23)C1 (stereo not drawn)
26 | 847 | Cn1cc(-c2cc3n(n2)CCC(=O)N3CCCC(=O)NC2CCCCC2)c2ccccc21
27 | 859 | CCC(=O)Oc1ccc(N(C)C2=NS(=O)(=O)c3ccccc32)cc1
28 | 771 | COc1ccc(Cl)cc1NC(=O)C1CCCN(C(=O)c2cc(-c3ccccn3)n[nH]2)C1 (stereo not drawn)

The next lines start with the molecule.

Row | Compound | RP-LC retention time [s]
29 | O=C1Nc2cc(C(=O)N3CCN(Cc4ccc5c(c4)OCO5)CC3)ccc2N2CCCCC12 (stereo not drawn) | 624
30 | CC1CCCN(S(=O)(=O)c2ccc(-n3cnc(C(=O)N4CCN(C)CC4)c3)nc2)C1 (stereo not drawn) | 648
31 | O=C(NCCCN1CCC(N2CCCCC2)CC1)c1ccc2c(c1)NC(=O)C1CCCCN21 (stereo not drawn) | 537
32 | CC(C)S(=O)(=O)c1cc2c(cc1NC(=O)c1ccccc1C(F)(F)F)n(C)c(=O)n2C | 853
33 | O=C(NCc1cccs1)c1ccc2c(c1)N(C(=O)c1ccc(F)cc1)CC2 | 880
34 | COC(=O)c1c(C)[nH]c(C(=O)N2CCCC(C(=O)NCc3ccc(C)cc3)C2)c1C (stereo not drawn) | 754
35 | COC(=O)c1cccc(NC(=O)CCc2cccc3[nH]ccc23)c1 | 847
36 | CC(C)n1c(SCC(=O)N2CCCCC2)nnc1-c1ccc2c(c1)OCCCO2 | 761
37 | O=C(NCc1ccccc1)C1CN(S(=O)(=O)c2cccnc2)CC12CCCCC2 (stereo not drawn) | 864
38 | Fc1cc(-c2cccc3ncc(-c4cnn(C5CCNCC5)c4)nc23)cc(F)c1CN1CCOCC1 | 611
39 | COc1ccc(-c2nc3ncccn3c2NCc2ccc(C)cc2)cc1 | 756
40 | CC(C)Cn1cc(S(=O)(=O)Nc2ccc(F)cc2Cl)c2cccnc21 | 1010
41 | CCOc1ccc(-c2noc(-c3nn(-c4ccc(F)cc4)c(=O)c4ccccc34)n2)cc1OC | 1240
42 | CCOC1CCN(C(=O)NC(C)C)CC1 | 630
43 | CC(C)(C)c1cc(C(=O)Nc2ccccc2F)nc2ccnn12 | 1380
44 | CC(C)n1c(CCNC(=O)c2ccc(Cl)cc2)nc2cccnc21 | 704
45 | CCn1nc(C(=O)Nc2nnc(-c3cc4ccccc4o3)o2)cc1C | 770
46 | CC(C)(C)c1onc(OCP(=O)(O)O)c1CC(N)C(=O)O (stereo not drawn) | 594
47 | CC(C)c1nnc2n1CCN(C(=O)c1cc(-c3cccs3)[nH]n1)C2 | 628
48 | Cn1c(C(=O)NC2CCCCCC2)cc2sc(Cl)cc21 | 1200

Row | Compound | RP-LC retention time [s]
49 | Nc1cc(Nc2ccc(Br)cc2)nc(N)n1 | 688
50 | O=C(NCCn1nc(-c2ccco2)ccc1=O)c1ccc2c(c1)ncn2-c1ccccc1 | 629
51 | CN1CCC2(CC1)CN(S(=O)(=O)N(C)C)CC2C(=O)N1CCc2ccccc21 (stereo not drawn) | 631
52 | O=C(CN1C(=O)CCCc2cc(S(=O)(=O)N3CCCCCC3)ccc21)NC1CCCCC1 | 987
53 | CCn1cc(S(=O)(=O)N2CCC3(CC2)CC(OCc2ccccc2)CCO3)cn1 (stereo not drawn) | 897
54 | O=C(NCC(=O)N1CCOC(c2ccccc2)C1)c1ccc(-c2ccccc2)cc1 (stereo not drawn) | 893
55 | Cc1cc(C)n(-c2ccnc(NCCc3cccs3)n2)n1 | 836
56 | CC(C)Cn1c(=O)c(C(=O)NCCc2cccnc2)nc2cccnc21 | 635
57 | CC1(C)CC(=O)C2=C(C1)N(CC1CCCO1)C(=O)C2(NC(=O)c1ccc(F)cc1)C(F)(F)F (stereo not drawn) | 929
58 | O=C(NCC#CCN1CCc2ccccc2C1)NC1CCCCC1 | 566
59 | O=C(Nc1ccc(-c2nc(-c3cccc(Br)c3)co2)cc1)c1ccco1 | 1150
60 | CC1=C(c2cccc(Cl)c2)S(=O)(=O)N=C1N1CCCN(C(=O)NCC(C)C)CC1 | 814
61 | CC(C)OCCCNC(=O)C1CCN(S(=O)(=O)c2ccc(-c3noc(C4CC4)n3)cc2)CC1 | 890
62 | CC(C)(C)n1nnnc1C1CC2(CCOCC2)C(=O)N1Cc1cccc(F)c1 (stereo not drawn) | 784
63 | Cc1cccc(-c2csc3c(=O)n(CC(=O)OC(C)(C)C)cnc23)c1 | 1070
64 | O=C(CSc1n[nH]c(-c2ccccc2)n1)NC1CCCCC1 | 784
65 | O=C(C1CCOC1)N1CCC(CCOc2cccc(F)c2)CC1 (stereo not drawn) | 834
66 | O=c1c2cc3c(cc2nc(SCc2nc(-c4cccc(F)c4)no2)n1-c1ccc(F)cc1)OCO3 | 1170
67 | O=C(Nc1cccnc1)c1cc(-c2ccnc(F)c2)ccc1OCc1ccccc1 | 884
68 | COc1cc(OC)cc(C(=O)Nc2nc(-c3ccc4c(c3)NC(=O)C(C)O4)cs2)c1 (stereo not drawn) | 940

Row | Compound | RP-LC retention time [s]
69 | Cc1cc(N2CCC(NC(=O)Nc3cccc(F)c3C)C2=O)ccc1F (stereo not drawn) | 904
70 | Cc1cc(C)n(-c2cc(N3CCCC(C(=O)Nc4cccc(C(F)(F)F)c4)C3)ncn2)n1 (stereo not drawn) | 1060
71 | Cc1nc(-c2cc3ccccc3nc2N2CCN(c3ccccc3)CC2)no1 | 666
72 | COc1cn(CC(=O)Nc2ccc(F)cc2F)c(CO)cc1=O | 565
73 | CCOc1cc(C(=O)Nc2nc(-c3ccc4c(c3)NC(=O)CO4)cs2)cc(OCC)c1OCC | 1030
74 | Cn1c(=O)c2ccn(CC(=O)N3CCN(c4ccc(F)cc4)CC3)c2n(C)c1=O | 683
75 | CCCS(=O)(=O)c1nc2ccc(NS(=O)(=O)c3ccccc3Cl)cc2s1 | 906
76 | CCS(=O)(=O)N1CC(=O)N(c2cccc(Cl)c2)C(C)(C(=O)NC2CCCCCC2)C1 (stereo not drawn) | 895
77 | Cc1cccc(C(=O)Nc2nc(-c3ccc4c(c3)N(C)C(=O)C(C)O4)cs2)c1 (stereo not drawn) | 1050
78 | COc1ccc(-c2noc(-c3nc(-c4cc(OC)c(OC)c(OC)c4)no3)n2)cc1 | 1080
79 | CCC1=CC2CN3CCc4c([nH]c5ccccc45)[C@@](C(=O)OC)(C2)C13 | 681
80 | COc1ccc(O)c2c(=O)c3c(OC)cc4c(c3oc12)[C@@H]1C=CO[C@@H]1O4 | 979
81 | Cc1cccc(S(=O)(=O)N(C)CC2CCOC2)c1 (stereo not drawn) | 811
82 | Cc1ccc(-c2noc(CSc3nccn3-c3ccc(C)cc3)n2)cc1 | 1020
83 | CC(C)CCNC(=O)C1(CCO)CCN(c2ncccn2)C1 (stereo not drawn) | 614
84 | O=S(=O)(NCCOc1ccc2c(c1)OCO2)c1ccc(F)c(Cl)c1 | 903
85 | CCc1nc(-c2cc(S(=O)(=O)N3CCC(C(=O)NCc4ccco4)CC3)c(C)s2)no1 | 932
86 | COc1ccc(C(=O)Nc2cnn(C)c(=O)c2N2CCOCC2)cc1Cl | 784
87 | O=C(Cc1ccc(Cl)cc1)N1CCCn2nc(-c3ccc(Cl)cc3)cc2C1 | 1050
88 | O=C(c1cccs1)N1CCOc2ccc(N3CCCC3)cc2C1 | 825
